Measurements taken from ChEMBL document CHEMBL1137197, “Discovery of thiadiazoles as a novel structural class of potent and selective PDE7 inhibitors. Part 1: design, synthesis and structure-activity relationship studies” (Bioorg Med Chem Lett, 2004).
pIC50: −log10 of the molar value. ≈ marks a conversion by molar mass, not a printed value.

Legend:
[1] = molecular target: cGMP-specific 3',5'-cyclic phosphodiesterase (Homo sapiens, UniProt O76074); test: Inhibition of human Phosphodiesterase 5 purified from MCF-7 cells; format: cell-free, MCF7
[2] = molecular target: High affinity 3',5'-cyclic-AMP phosphodiesterase 7A (Homo sapiens, UniProt Q13946); test: Inhibition of human Phosphodiesterase 7A1 expressed in baculovirus infected Sf9 cells
Chain of High affinity 3',5'-cyclic-AMP phosphodiesterase 7A (Q13946 whole entry): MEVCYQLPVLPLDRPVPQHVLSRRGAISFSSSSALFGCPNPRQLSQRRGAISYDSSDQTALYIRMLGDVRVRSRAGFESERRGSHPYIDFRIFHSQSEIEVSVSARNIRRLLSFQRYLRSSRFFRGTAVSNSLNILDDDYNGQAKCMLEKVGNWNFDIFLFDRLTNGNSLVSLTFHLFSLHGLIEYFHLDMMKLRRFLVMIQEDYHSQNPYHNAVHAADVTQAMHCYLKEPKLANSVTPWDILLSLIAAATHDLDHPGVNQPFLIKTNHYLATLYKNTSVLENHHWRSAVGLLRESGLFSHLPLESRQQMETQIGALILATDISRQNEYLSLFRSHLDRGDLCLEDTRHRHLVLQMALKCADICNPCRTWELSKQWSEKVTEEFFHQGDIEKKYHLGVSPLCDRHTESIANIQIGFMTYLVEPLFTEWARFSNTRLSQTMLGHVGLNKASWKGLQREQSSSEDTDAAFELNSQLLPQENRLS

[3] = molecular target: cGMP-inhibited 3',5'-cyclic phosphodiesterase 3A (Homo sapiens, UniProt Q14432); test: Inhibition of human Phosphodiesterase 3A3 expressed in baculovirus infected Sf9 cells
Chain of cGMP-inhibited 3',5'-cyclic phosphodiesterase 3A (Q14432 whole entry): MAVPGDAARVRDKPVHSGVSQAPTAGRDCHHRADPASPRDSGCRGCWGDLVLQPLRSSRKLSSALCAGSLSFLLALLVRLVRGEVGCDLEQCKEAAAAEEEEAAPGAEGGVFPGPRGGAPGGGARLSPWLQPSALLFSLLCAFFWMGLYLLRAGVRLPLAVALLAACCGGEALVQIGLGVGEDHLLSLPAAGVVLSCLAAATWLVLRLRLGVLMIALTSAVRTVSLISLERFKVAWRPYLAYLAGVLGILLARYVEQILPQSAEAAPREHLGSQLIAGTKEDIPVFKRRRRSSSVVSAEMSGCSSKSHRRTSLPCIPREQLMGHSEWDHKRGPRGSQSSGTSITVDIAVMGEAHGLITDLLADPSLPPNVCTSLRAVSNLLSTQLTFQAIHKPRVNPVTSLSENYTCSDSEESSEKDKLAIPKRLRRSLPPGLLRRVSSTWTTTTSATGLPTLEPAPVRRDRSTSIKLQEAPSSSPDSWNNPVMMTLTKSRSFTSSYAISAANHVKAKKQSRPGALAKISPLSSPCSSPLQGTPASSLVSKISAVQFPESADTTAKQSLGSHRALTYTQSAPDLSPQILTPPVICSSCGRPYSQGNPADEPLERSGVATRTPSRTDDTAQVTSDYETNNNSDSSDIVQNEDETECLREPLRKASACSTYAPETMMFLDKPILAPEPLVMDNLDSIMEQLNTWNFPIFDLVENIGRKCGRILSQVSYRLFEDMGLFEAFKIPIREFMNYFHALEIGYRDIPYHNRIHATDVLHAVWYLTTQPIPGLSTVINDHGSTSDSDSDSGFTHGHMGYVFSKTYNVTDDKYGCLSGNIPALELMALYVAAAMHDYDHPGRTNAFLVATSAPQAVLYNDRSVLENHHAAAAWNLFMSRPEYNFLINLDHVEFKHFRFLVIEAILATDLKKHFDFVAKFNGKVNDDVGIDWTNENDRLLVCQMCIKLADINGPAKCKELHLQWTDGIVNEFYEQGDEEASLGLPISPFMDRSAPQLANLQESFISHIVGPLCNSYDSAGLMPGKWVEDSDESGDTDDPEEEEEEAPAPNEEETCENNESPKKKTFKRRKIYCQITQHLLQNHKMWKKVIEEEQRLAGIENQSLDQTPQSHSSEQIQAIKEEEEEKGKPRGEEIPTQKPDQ

[4] = molecular target: 3',5'-cyclic-AMP phosphodiesterase 4D (Homo sapiens, UniProt Q08499); test: Inhibition of human Phosphodiesterase 4D3 expressed in baculovirus infected Sf9 cells
Chain of 3',5'-cyclic-AMP phosphodiesterase 4D (Q08499 whole entry): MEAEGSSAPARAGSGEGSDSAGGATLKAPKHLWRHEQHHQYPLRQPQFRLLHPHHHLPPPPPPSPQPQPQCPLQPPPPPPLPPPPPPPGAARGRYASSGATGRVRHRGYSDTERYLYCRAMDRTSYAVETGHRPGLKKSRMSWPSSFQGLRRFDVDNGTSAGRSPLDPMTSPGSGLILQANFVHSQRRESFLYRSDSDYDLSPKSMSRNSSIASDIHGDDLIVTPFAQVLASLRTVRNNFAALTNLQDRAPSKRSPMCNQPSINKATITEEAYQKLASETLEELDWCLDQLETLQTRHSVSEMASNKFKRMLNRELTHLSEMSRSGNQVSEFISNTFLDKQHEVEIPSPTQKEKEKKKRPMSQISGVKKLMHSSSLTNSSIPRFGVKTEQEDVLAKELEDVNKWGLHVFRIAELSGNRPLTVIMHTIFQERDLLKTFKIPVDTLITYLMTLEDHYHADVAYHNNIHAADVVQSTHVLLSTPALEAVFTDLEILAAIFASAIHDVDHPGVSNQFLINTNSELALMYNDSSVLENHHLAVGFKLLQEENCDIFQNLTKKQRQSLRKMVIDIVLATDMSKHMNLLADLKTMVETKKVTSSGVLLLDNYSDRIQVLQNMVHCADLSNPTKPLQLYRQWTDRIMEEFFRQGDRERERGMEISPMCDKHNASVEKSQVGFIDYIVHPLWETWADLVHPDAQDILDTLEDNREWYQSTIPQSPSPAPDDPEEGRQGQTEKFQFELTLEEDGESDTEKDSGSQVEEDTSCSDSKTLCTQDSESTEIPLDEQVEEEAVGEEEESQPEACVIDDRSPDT

Phosphodiesterase 1 = Phosphodiesterase 1 (Homo sapiens, UniProt P54750+Q01064+Q14123); test: Inhibition of human Phosphodiesterase 1 purified from THP-1 cells; format: cell-free
[5] = Solubility at 7.4 pH; format: physicochemical; conditions: pH 7.4

SMILES | pIC50 [1] | pIC50 [2] | pIC50 [3] | pIC50 [4] | IC50 (Phosphodiesterase 1) | solubility [5]
Cn1nc(-c2ccc(Cl)cc2)s/c1=N\c1cccc(C(=O)O)c1O | 5.29 | 6.59 | 5.01 | 4.85 | 9.28 µM | 
Cn1nc(-c2ccc(Cl)cc2)s/c1=N\c1ccc(F)c(C(=O)O)c1 | 4.75 | 6.80 | 4.77 | 4.40 | 21.58 µM | 
Cn1nc(-c2ccc(Cl)cc2)s/c1=N\c1ccc(C(=O)O)cc1 | 4.39 | 5.34 | 4.51 | < 4.00 | 28.93 µM | 
Cn1nc(-c2ccc(Cl)cc2)s/c1=N\C1CC2CCC1C2 (stereo unspecified) |  |  |  | < 4.00 |  | 
CCC/N=c1\sc(-c2ccc(Cl)cc2)nn1C |  | 5.11 |  | 4.59 |  | 
Cn1nc(-c2ccc(Cl)cc2)s/c1=N\c1ccc(O)c(C(=O)O)c1 | 5.40 | 6.82 | 5.25 | 5.15 | 5.23 µM | 
Cn1nc(-c2ccc(Cl)cc2)s/c1=N\c1ccccc1 |  | 5.53 |  | 4.42 |  | 
Cn1nc(-c2ccc(Cl)cc2)s/c1=N\c1c(O)cccc1C(=O)O | 4.73 | 5.88 | 4.31 | 4.23 | 28.84 µM | 
Cn1nc(-c2ccc(Cl)cc2)s/c1=N\c1cccc(C(N)=O)c1 | < 4.00 | 5.79 | 5.58 | 4.35 | 7.83 µM | 
Cn1nc(-c2ccc(Cl)cc2)s/c1=N\c1cccc(-c2nn[nH]n2)c1 | 5.15 | 7.10 | 5.77 | 5.37 | 3.34 µM | 
Cn1nc(-c2ccc(Cl)cc2)s/c1=N\C1CN2CCC1C2 (stereo unspecified) |  | 5.23 |  | 4.10 |  | 
Cn1nc(-c2ccc(Cl)cc2)s/c1=N\c1ccccc1O | < 4.00 | 5.28 | < 4.00 | < 4.00 | > 101 µM | 
Cn1nc(-c2ccc(Cl)cc2)s/c1=N\c1cccc(O)c1 | 4.96 | 5.74 | 5.21 | < 4.00 | 9.81 µM | 
Cn1nc(-c2ccc(Cl)cc2)s/c1=N\c1cccc(C(=O)O)c1 | 5.14 | 6.85 | 5.13 | 4.67 | 16.38 µM | 
Cn1nc(-c2ccc(Cl)cc2)s/c1=N\c1cccc(-c2noc(O)n2)c1 | 5.12 | 6.36 | 5.72 | 5.25 | 3.56 µM | 
Cn1nc(-c2ccc(Cl)cc2)s/c1=N\c1cccc(CC(=O)O)c1 | 4.70 | 5.67 | 5.07 | 4.64 | 40.34 µM | 
Cn1nc(-c2ccc(Cl)cc2)s/c1=N\C1(CO)CCCC1 |  | 5.40 |  | < 4.00 |  | 
Cn1nc(-c2ccc(Cl)cc2)s/c1=N\c1ccc(O)cc1 | < 4.00 | 5.77 | 4.00 | 4.89 | > 101 µM | 
Cn1nc(-c2ccc(Cl)cc2)s/c1=N\c1ccc(F)cc1 | 4.00 | 5.66 | < 4.00 | < 4.00 | 85.68 µM | 
Cn1nc(-c2ccc(Cl)cc2)s/c1=N\C(C)(C)CO |  | 5.72 |  | 4.43 |  | 
Cc1cccc(C(=O)O)c1/N=c1\sc(-c2ccc(Cl)cc2)nn1C | 4.63 | 5.86 | 4.69 | 4.69 | 14.06 µM | 
Cn1nc(-c2ccc(Cl)cc2)s/c1=N\c1cccc(C#N)c1 | < 4.00 | 5.24 | 4.33 | 4.44 | > 101 µM | 
Cn1nc(-c2ccc(Cl)cc2)s/c1=N\c1cccc(F)c1 | < 4.00 | 5.18 | < 4.00 | < 4.00 | > 101 µM | 
CCC(CC)/N=c1\sc(-c2ccc(Cl)cc2)nn1C |  | 5.25 |  | < 4.00 |  | 
CC(C)/N=c1\sc(-c2ccc(Cl)cc2)nn1C |  | 5.41 |  | 4.77 |  | 

Second part, the molecule after the results:

pIC50 [1] | pIC50 [2] | pIC50 [3] | pIC50 [4] | IC50 (Phosphodiesterase 1) | solubility [5] | SMILES
 | 6.85 |  | 4.72 |  |  | COC(=O)c1cccc(-c2nn(C)/c(=N/C3CCCCC3)s2)c1
 | 5.32 |  | 5.20 |  |  | Cn1nc(-c2ccc(Cl)cc2)s/c1=N\C1CCC1
 | 5.51 |  | 4.09 |  |  | Cn1nc(-c2ccc(Cl)cc2)s/c1=N\C1CCCC1
 | 6.33 |  | < 4.00 |  |  | CN(C)CCN(C)C(=O)c1ccc(-c2nn(C)/c(=N/C3CCCCC3)s2)cc1
 | 6.82 |  | 4.96 |  |  | Cn1nc(-c2ccc(S(N)(=O)=O)cc2)s/c1=N\C1CCCCC1
 | 6.92 |  | 4.71 |  |  | Cn1nc(-c2ccc(C(N)=O)c(O)c2)s/c1=N\C1CCCCC1
 | 7.05 |  | 4.72 |  |  | Cn1nc(-c2cccc(C(N)=O)c2)s/c1=N\C1CCCCC1
 |  |  | 4.82 |  |  | Cn1nc(-c2cccc(S(N)(=O)=O)c2)s/c1=N\C1CCCCC1
 | 6.03 |  | 4.35 |  |  | Cc1cc(-c2nn(C)/c(=N/C3CCCCC3)s2)ccc1C(N)=O
 | 7.52 |  | 5.06 |  | 17 µg/mL (≈ 39.6 µM) | Cn1nc(-c2ccc(C(=O)NCCN3CCOCC3)cc2)s/c1=N\C1CCCCC1
 | 5.82 |  | 4.24 |  |  | Cn1nc(-c2ccc(Cl)cc2)s/c1=N\C1CCCCC1
 |  |  | < 4.00 |  |  | Cn1nc(-c2cccc(Cl)c2)s/c1=N\C1CCCCC1
 | 5.12 |  | 4.52 |  |  | COC(=O)c1ccccc1-c1nn(C)/c(=N/C2CCCCC2)s1
 | 7.70 |  | 5.23 |  |  | CCNS(=O)(=O)c1cc(-c2nn(C)/c(=N/C3CCCCC3)s2)ccc1Cl
 | 6.89 |  | 4.60 |  |  | Cn1nc(-c2ccc(S(C)(=O)=O)cc2)s/c1=N\C1CCCCC1
 | 6.33 |  | < 4.00 |  |  | COc1cc(-c2nn(C)/c(=N/C3CCCCC3)s2)ccc1C(N)=O
 |  |  | 4.91 |  |  | Cn1nc(-c2ccc(O)cc2)s/c1=N\C1CCCCC1

pIC50 [1] | pIC50 [2] | pIC50 [3] | pIC50 [4] | IC50 (Phosphodiesterase 1) | solubility [5] | SMILES
 | 7.22 |  | 4.82 |  |  | Cn1nc(-c2ccc(C(N)=O)cc2)s/c1=N\C1CCCCC1
 | 7.22 |  | 5.23 |  |  | Cn1nc(-c2ccc(Cl)c(S(N)(=O)=O)c2)s/c1=N\C1CCCCC1
 | 8.41 |  | 4.03 |  |  | Cc1nc(N)c2ccc(-c3nn(C)/c(=N/C4CCCCC4)s3)cc2n1
 | 7.22 |  | 4.48 |  | 83 µg/mL (≈ 214 µM) | CN(C)CCNC(=O)c1ccc(-c2nn(C)/c(=N/C3CCCCC3)s2)cc1
 |  |  | 4.65 |  |  | Cn1nc(-c2cccc(C(=O)O)c2)s/c1=N\C1CCCCC1
 |  |  | 4.40 |  |  | Cn1nc(-c2ccccc2Cl)s/c1=N\C1CCCCC1
 | 5.19 |  | 4.15 |  |  | Cn1nc(-c2ccccc2O)s/c1=N\C1CCCCC1
 | 6.25 |  | 4.59 |  |  | Cn1nc(-c2ccc(N)cc2)s/c1=N\C1CCCCC1
 |  |  | 4.02 |  |  | COC(=O)c1ccc(-c2nn(C)/c(=N/C3CCCCC3)s2)cc1
 |  |  | 4.47 |  |  | CC(=O)Nc1ccc(-c2nn(C)/c(=N/C3CCCCC3)s2)cc1
 | 7.10 |  | 4.59 |  |  | Cn1nc(-c2ccc(C(N)=O)c(N)c2)s/c1=N\C1CCCCC1
 | 7.70 |  | < 4.00 |  |  | Cn1nc(-c2ccc3c(N)ncnc3c2)s/c1=N\C1CCCCC1
 | 5.23 |  | < 4.00 |  |  | Cn1nc(-c2ccc(Cl)cc2)s/c1=N\C1CCC(N)CC1 (stereo unspecified)
 | 5.78 |  | < 4.00 |  |  | Cn1nc(-c2ccc(Cl)cc2)s/c1=N\C1CCCCCCC1
 |  |  | 4.49 |  |  | Cn1nc(-c2ccc(C(=O)O)cc2)s/c1=N\C1CCCCC1
 | 7.22 |  | 4.93 |  |  | COc1c(O)cc(-c2nn(C)/c(=N/C3CCCCC3)s2)cc1O
 |  |  | 4.65 |  |  | Cn1nc(-c2cccc(O)c2)s/c1=N\C1CCCCC1
